Laboratory results as given in patent US7166622B2, “Substituted phenylsulfonamide inhibitors of beta amyloid production” (Wyeth, priority 2002, dated 2007).
Values joined by “and” are separate entries in the source; they are usually repeats but may differ in a detail not shown here. Identical values can stand only once.

Columns and labels:
beta amyloid production = assay: Repressor Release Assay (RRA); assay type: cell-based; settings: for fold induction at 10 µg/mL / APPI Fold Increase / APPI % of Example #98: Conc 10 μg/ml; for fold induction at 10 µg/mL / fold induction at 20 µg/mL / APPI Fold Increase: luciferase activity over diluent control; for fold induction at 10 µg/mL / fold induction at 20 µg/mL: read-out: APPI Fold Increase; for fold induction at 20 µg/mL: Conc 20 μg/ml; for APPI % of Example #98: relative to Example 98
Procedure, shortened: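 CHO-K1 cells transiently co-transfected with pRSVO-luc and an APP-lacI construct, replated, then treated in duplicate for 36-48 h at 37 °C, 5% CO2. Compounds diluted in 25 mM Hepes, with Hepes/1% DMSO as diluent control. Luciferase read-out in relative light units; toxicity scored 1 non-toxic, 0 toxic.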

CHO-K1 cells = assay: Toxicity in RRA (loss of luciferase signal); settings: toxicity = loss of signal (<0.75 fold increase)
Procedure: The beta amyloid inhibitory activity of the compounds of the present invention was determined using the Repressor Release Assay (RRA).
“Fold Increase” refers to the amount of luciferase activity (measured in relative light units) over diluent control. “SEM” refers to the standard error of the mean for fold increase.

## CC[C@H](C)[C@H](NS(=O)(=O)c1ccc(Cl)cc1)C(O)(CC)CC [Example 229, 4-chloro-N-{(1S)-2-ethyl-2-hydroxy-1-[(1S)-1-methylpropyl]butyl}benzenesulfonamide]
Beta amyloid production
  fold induction at 10 µg/mL: 1.52
CHO-K1 cells; Conc 10 μg/ml
  (%)APPI Toxicity: 1 (1=non-toxic)

## C=C(C)C(O)(C(=C)C)[C@@H](NS(=O)(=O)c1ccc(Cl)cc1)[C@@H](C)CC [Example 230, 4-chloro-N-{(1S)-2-hydroxy-2-isopropenyl-3-methyl-1-[(1S)-1-methylpropyl]-3-butenyl}benzenesulfonamide]
Beta amyloid production
  fold induction at 10 µg/mL: 1.75
  fold induction at 20 µg/mL: 1.9
CHO-K1 cells; Conc 10 μg/ml
  (%)APPI Toxicity: 1 (1=non-toxic)
CHO-K1 cells; Conc 20 μg/ml
  (%)APPI Toxicity: 1 (1=non-toxic)

## CC[C@H](C)[C@H](NS(=O)(=O)c1ccc(Cl)cc1)C(O)(c1ccc(OC)cc1)c1ccc(OC)cc1 [Example 231, 4-chloro-N-((1S,2 S)-1-{hydroxy [bis(4-methoxyphenyl)]methyl}-2-methylbutyl)benzenesulfonamide]
Beta amyloid production
  fold induction at 10 µg/mL: 2.49
CHO-K1 cells; Conc 10 μg/ml
  (%)APPI Toxicity: 1 (1=non-toxic)

## C/C=C(\C)C(O)(/C(C)=C/C)[C@@H](NS(=O)(=O)c1ccc(Cl)cc1)[C@@H](C)CC (stereo partly drawn) [Example 232, 4-chloro-N-{(1S,3E)-2-hydroxy-3-methyl-2-[(1E)-1-methyl-1-propenyl]-1-[(1S)-1-methylpropyl]-3-pentenyl}benzenesulfonamide]
Beta amyloid production
  fold induction at 10 µg/mL: 1.94
  fold induction at 20 µg/mL: 4.2
CHO-K1 cells; Conc 10 μg/ml
  (%)APPI Toxicity: 1 (1=non-toxic)
CHO-K1 cells; Conc 20 μg/ml
  (%)APPI Toxicity: 1 (1=non-toxic)

## C=CCCC(O)(CCC=C)[C@@H](NS(=O)(=O)c1ccc(Cl)cc1)[C@@H](C)CC [Example 233, N-{(1S)-2-(3-butenyl)-2-hydroxy-1-[(1S)-1-methylpropyl]-5-hexenyl}-4-chlorobenzenesulfonamide]
Beta amyloid production
  fold induction at 10 µg/mL: 6.67
CHO-K1 cells; Conc 10 μg/ml
  (%)APPI Toxicity: 1 (1=non-toxic)

## CC[C@H](C)[C@H](NS(=O)(=O)c1ccc(Cl)cc1)C(O)(c1cccc2ccccc12)c1cccc2ccccc12 [Example 234, 4-chloro-N-((1S,2S)-1-{hydroxy[di(1-naphthyl)]methyl}-2-methylbutyl) benzenesulfonamide]
Beta amyloid production
  APPI Fold Increase: 2.9 fold and 1.6 fold
CHO-K1 cells; Conc 10 μg/ml
  (%)APPI Toxicity: 1 (1=non-toxic)

## CC[C@H](C)[C@H](NS(=O)(=O)c1ccc(F)cc1)C(C)(C)O [Example 235, 4-fluoro-N-[(1S,2S)-1-(1-hydroxy-1-methylethyl)-2-methylbutyl]benzenesulfonamide]
Beta amyloid production
  fold induction at 10 µg/mL: 1.88
CHO-K1 cells; Conc 10 μg/ml
  (%)APPI Toxicity: 1 (1=non-toxic)

## CCCCCC(O)(CCCCC)[C@@H](NS(=O)(=O)c1ccc(F)cc1)[C@@H](C)CC [Example 237, 4-fluoro-N-{(1S)-2-hydroxy-1-[(1S)-1-methylpropyl]-2-pentylheptyl}benzenesulfonamide]
Beta amyloid production
  fold induction at 10 µg/mL: 6.05
CHO-K1 cells; Conc 10 μg/ml
  (%)APPI Toxicity: 1 (1=non-toxic)

## CCCCC(O)(CCCC)[C@@H](NS(=O)(=O)c1ccc(F)cc1)[C@@H](C)CC [Example 238, N-{(1S)-2-butyl-2-hydroxy-1-[(1S)-1-methylpropyl]hexyl}-4-fluorobenzenesulfonamide]
Beta amyloid production
  fold induction at 10 µg/mL: 4.5
CHO-K1 cells; Conc 10 μg/ml
  (%)APPI Toxicity: 1 (1=non-toxic)

## CC[C@H](C)[C@H](NS(=O)(=O)c1ccc(F)cc1)C(O)(C(C)C)C(C)C [Example 239, 4-fluoro-N-{(1S)-2-hydroxy-2-isopropyl-3-methyl-1-[(1S)-1-methylpropyl]butyl}benzenesulfonamide]
Beta amyloid production
  fold induction at 10 µg/mL: 1.54
CHO-K1 cells; Conc 10 μg/ml
  (%)APPI Toxicity: 1 (1=non-toxic)

## CC[C@H](C)[C@H](NS(=O)(=O)c1ccc(F)cc1)C(O)(CC(C)C)CC(C)C [Example 240, 4-fluoro-N-{(1S)-2-hydroxy-2-isobutyl-4-methyl-1-[(1S)-1-methylpropyl]pentyl}benzenesulfonamide]
Beta amyloid production
  fold induction at 10 µg/mL: 3.82
CHO-K1 cells; Conc 10 μg/ml
  (%)APPI Toxicity: 1 (1=non-toxic)

## C=CCC(O)(CC=C)[C@@H](NS(=O)(=O)c1ccc(F)cc1)[C@@H](C)CC [Example 241, N-{(1S)-2-allyl-2-hydroxy-1-[(1S)-1-methylpropyl]-4-pentenyl}-4-fluoro benzenesulfonamide]
Beta amyloid production
  APPI Fold Increase: 1.58 fold
  APPI % of Example #98: 72.82%
CHO-K1 cells; Conc 10 μg/ml
  (%)APPI Toxicity: 1 (1=non-toxic)

## CC[C@H](C)[C@H](NS(=O)(=O)c1ccc(F)cc1)C(O)(CC)CC [Example 242, N-{(1S)-2-ethyl-2-hydroxy-1-[(1S)-1-methylpropyl]butyl}-4-fluorobenzenesulfonamide]
Beta amyloid production
  fold induction at 10 µg/mL: 1.6
CHO-K1 cells; Conc 10 μg/ml
  (%)APPI Toxicity: 1 (1=non-toxic)

## C=C(C)C(O)(C(=C)C)[C@@H](NS(=O)(=O)c1ccc(F)cc1)[C@@H](C)CC [Example 243, 4-fluoro-N-{(1S)-2-hydroxy-2-isopropenyl-3-methyl-1-[(1S)-1-methylpropyl]-3-butenyl}benzenesulfonamide]
Beta amyloid production
  fold induction at 10 µg/mL: 1.7
CHO-K1 cells; Conc 10 μg/ml
  (%)APPI Toxicity: 1 (1=non-toxic)

## CC[C@H](C)[C@H](NS(=O)(=O)c1ccc(F)cc1)C(O)(c1ccc(OC)cc1)c1ccc(OC)cc1 [Example 244, 4-fluoro-N-((1S,2S)-1-{hydroxy[bis(4-methoxyphenyl)]methyl}-2-methylbutyl) benzenesulfonamide]
Beta amyloid production
  APPI Fold Increase: 1.51 fold
  APPI % of Example #98: 69.29%
CHO-K1 cells; Conc 10 μg/ml
  (%)APPI Toxicity: 1 (1=non-toxic)

## C/C=C(\C)C(O)(/C(C)=C/C)[C@@H](NS(=O)(=O)c1ccc(F)cc1)[C@@H](C)CC (stereo partly drawn) [Example 245, 4-fluoro-N-{(1S,3E)-2-hydroxy-3-methyl-2-[(1E)-1-methyl-1-propenyl]-1-[(1S)-1-methylpropyl]-3-pentenyl}benzenesulfonamide]
Beta amyloid production
  fold induction at 10 µg/mL: 2.05
  fold induction at 20 µg/mL: 3.5
CHO-K1 cells; Conc 10 μg/ml
  (%)APPI Toxicity: 1 (1=non-toxic)
CHO-K1 cells; Conc 20 μg/ml
  (%)APPI Toxicity: 1 (1=non-toxic)

## C=CCCC(O)(CCC=C)[C@@H](NS(=O)(=O)c1ccc(F)cc1)[C@@H](C)CC [Example 246, N-{(1S)-2-(3-butenyl)-2-hydroxy-1-[(1S)-1-methylpropyl]-5-hexenyl}-4-fluorobenzenesulfonamide]
Beta amyloid production
  fold induction at 10 µg/mL: 2.42
  fold induction at 20 µg/mL: 1.9
CHO-K1 cells; Conc 10 μg/ml
  (%)APPI Toxicity: 1 (1=non-toxic)
CHO-K1 cells; Conc 20 μg/ml
  (%)APPI Toxicity: 1 (1=non-toxic)

## CC[C@H](C)[C@H](NS(=O)(=O)c1ccc(F)cc1)C(O)(c1ccc(N(C)C)cc1)c1ccc(N(C)C)cc1 [Example 247, N-{(1S,2S)-1-[bis[4-(dimethylamino)phenyl](hydroxy)methyl]-2-methylbutyl}-4-fluorobenzenesulfonamide]
Beta amyloid production
  fold induction at 10 µg/mL: 1.54
CHO-K1 cells; Conc 10 μg/ml
  (%)APPI Toxicity: 1 (1=non-toxic)

## CCCCCCC(O)(CCCCCC)[C@@H](NS(=O)(=O)c1cccc(Cl)c1)[C@@H](C)CC [Example 249, 3-chloro-N-{(1S)-2-hexyl-2-hydroxy-1-[(1S)-1-methylpropyl]octyl}benzenesulfonamide]
Beta amyloid production
  fold induction at 10 µg/mL: 1.9
CHO-K1 cells; Conc 10 μg/ml
  (%)APPI Toxicity: 1 (1=non-toxic)

## CCCCCC(O)(CCCCC)[C@@H](NS(=O)(=O)c1cccc(Cl)c1)[C@@H](C)CC [Example 250, 3-chloro-N-{(1S)-2-hydroxy-1-[(1S)-1-methylpropyl]-2-pentylheptyl}benzenesulfonamide]
Beta amyloid production
  fold induction at 10 µg/mL: 2.4
CHO-K1 cells; Conc 10 μg/ml
  (%)APPI Toxicity: 1 (1=non-toxic)

## CCCCC(O)(CCCC)[C@@H](NS(=O)(=O)c1cccc(Cl)c1)[C@@H](C)CC [Example 251, N-{(1S)-2-butyl-2-hydroxy-1-[(1S)-1-methylpropyl]hexyl}-3-chlorobenzenesulfonamide]
Beta amyloid production
  fold induction at 10 µg/mL: 3.4
CHO-K1 cells; Conc 10 μg/ml
  (%)APPI Toxicity: 1 (1=non-toxic)

## CC[C@H](C)[C@H](NS(=O)(=O)c1cccc(Cl)c1)C(O)(CC(C)C)CC(C)C [Example 252, 3-chloro-N-{(1S)-2-hydroxy-2-isobutyl-4-methyl-1-[(1S)-1-methylpropyl]pentyl}benzenesulfonamide]
Beta amyloid production
  fold induction at 10 µg/mL: 1.8
CHO-K1 cells; Conc 10 μg/ml
  (%)APPI Toxicity: 1 (1=non-toxic)

## CC[C@H](C)[C@H](NS(=O)(=O)c1cccc(Cl)c1)C(O)(c1ccccc1)c1ccccc1 [Example 253, 3-chloro-N-{(1S,2S)-1-[hydroxy(diphenyl)methyl]-2-methylbutyl}benzenesulfonamide]
Beta amyloid production
  fold induction at 10 µg/mL: 1.61
CHO-K1 cells; Conc 10 μg/ml
  (%)APPI Toxicity: 1 (1=non-toxic)

## C=CCC(O)(CC=C)[C@@H](NS(=O)(=O)c1cccc(Cl)c1)[C@@H](C)CC [Example 254, N-{(1S)-2-allyl-2-hydroxy-1-[(1S)-1-methylpropyl]-4-pentenyl}-3-chloro benzenesulfonamide]
Beta amyloid production
  APPI Fold Increase: 1.93 fold
  APPI % of Example #98: 71.92%
CHO-K1 cells; Conc 10 μg/ml
  (%)APPI Toxicity: 1 (1=non-toxic)

## CC[C@H](C)[C@H](NS(=O)(=O)c1cccc(Cl)c1)C(O)(CC)CC [Example 255, 3-chloro-N-{(1S)-2-ethyl-2-hydroxy-1-[(1S)-1-methylpropyl]butyl}benzenesulfonamide]
Beta amyloid production
  fold induction at 10 µg/mL: 2.03
CHO-K1 cells; Conc 10 μg/ml
  (%)APPI Toxicity: 1 (1=non-toxic)

## CC[C@H](C)[C@H](NS(=O)(=O)c1cccc(Cl)c1)C(O)(c1ccc(Cl)cc1)c1ccc(Cl)cc1 [Example 256, N-{(1S,2S)-1-[bis(4-chlorophenyl)(hydroxy)methyl]-2-methylbutyl}-3-chloro benzenesulfonamide]
Beta amyloid production
  APPI Fold Increase: 1.5 fold
  APPI % of Example #98: 55.91%
CHO-K1 cells; Conc 10 μg/ml
  (%)APPI Toxicity: 1 (1=non-toxic)

## CC[C@H](C)[C@H](NS(=O)(=O)c1cccc(Cl)c1)C(O)(c1ccc(OC)cc1)c1ccc(OC)cc1 [Example 258, 3-chloro-N-((1S,2S)-1-{hydroxy [bis(4-methoxyphenyl)]methyl}-2-methylbutyl)benzenesulfonamide]
Beta amyloid production
  fold induction at 10 µg/mL: 1.72
CHO-K1 cells; Conc 10 μg/ml
  (%)APPI Toxicity: 1 (1=non-toxic)
